Tests used:
[1] = Chemical stability in aqueous state, 25° C., 4 weeks, complete darkness (HPLC); assay type: physicochemical; settings: distilled water
Method: The resulting aqueous solutions were stored at 25° C. for 4 weeks in complete darkness, after which a measurement was made of the contents of the salts with resort to HPLC under the same conditions as in the solid state.

[2] = Test for light stability, aqueous solution exposed to daylight (HPLC content); assay type: physicochemical; settings: for color change: 4 weeks at 25° C., daylight; for content (HPLC): stored for 4 weeks at 25° C. daylight
Method: The resulting aqueous solutions were stored at 25° C. for 4 weeks while being exposed to daylight. A measurement was made of the contents of the salts with resort to HPLC under the same conditions as in the chemical stability test.

[3] = Chemical stability in solid state, accelerated test at 60° C. (HPLC content); assay type: physicochemical; settings: for changes in the content: accelerated test at 60° C.; for content (HPLC): solid state, 60° C.
From the text: 1. HPLC Analysis Conditions:
Detector: UV Absorbance (at 237 nm)
Column: Octadesyl silica gel C18 (4.6 mm×150mm, 5 μm)
Mobile Phase: Potassium dihydrogenphosphate monobasic (0.03M): methanol=4:6 (v/v)

[4] = Test for hygroscopicity (water content at different humidity levels); assay type: physicochemical; settings: for water content: 25° C.; for change of water content: one week under various humidity conditions
[5] = physchem; settings: 37 °C, pH 5, aqueous buffer

Compound | decomposition products and content change [1] | color change [2] | content (HPLC) [2] | changes in the content [3] | content (HPLC) ([3]; 1 week) | content (HPLC) ([3]; initial) | water content ([4]; 25% RH, 1 week) | water content ([4]; 60% RH, 1 week) | water content ([4]; 75% RH, 1 week) | water content ([4]; 90% RH, 1 week) | water content ([4]; Initial) | change of water content [4] | solubility [5] | content (HPLC) ([3]; 2 weeks)
CCOC(=O)C1=C(COCCN)NC(C)=C(C(=O)OC)[C@@H]1c1ccccc1Cl [(S)-(−)-PyroGlu, Amlodipine (S)-(−)-Pyroglutamate] | neither decomposition products nor content change is found | no color change | 98.5% | virtually no changes in the content | 99.6% | 99.6% | 0.26% | 0.3% | 0.31% | 0.32% | 0.3% | kept its initial water content without great fluctuation |  | 
CCOC(=O)C1=C(COCCN)NC(C)=C(C(=O)OC)C1c1ccccc1Cl.Cc1ccc(S(=O)(=O)O)cc1 (stereo not drawn) [Tosylate, Amlodipine para-Toluenesulfonate] |  |  | 72.0% |  |  |  |  |  |  |  |  |  |  | 
CCOC(=O)C1=C(COCCN)NC(C)=C(C(=O)OC)C1c1ccccc1Cl (stereo not drawn) [Besylate, Amlodipine Besylate] | neither decomposition products nor content change is found | turned yellow from white | 82.5% | virtually no changes in the content | 99.6% | 99.6% | 0.10% | 0.09% | 0.15% | 0.17% | 0.14% | kept its initial water content without great fluctuation | 3150 µg/mL | 99.4%

— patent US6846931B2, “Organic acid salt of amlodipine” (CJ Corp, priority 2002, dated 2005)
